# Experimental data published in patent publication US20240277795A1, “INHIBITORS OF CYSTEINE PROTEASES AND METHODS OF USE THEREOF” (Pardes Biosciences, Inc., priority 2021, published 2024).
# Read-outs that look alike come from different tables or passages of the source.
# Columns and labels:
# 229E Mpro = 229E Mpro (Human coronavirus 229E, UniProt P0C6X1); assay: 229E Mpro enzymatic assay; format: biochemical, HCoV 229E
# Method: (§1) Compounds were assayed using standard methods to assess compound activity and IC50. As an exemplary for assessment of the SARS-COV2 Mpro, the C-His6-tagged Mpro (NC_045512) was cloned, expressed in E. coli and purified. The assay buffer contained 20 mM of Tris-HCl (pH 7.3), 100 mM of NaCl, 1 mM of EDTA, 5 mM of TCEP and 0.1% BSA. The final concentrations of the Mpro protein and substrate were 25 nM and 25 μM, respectively, in the Mpro enzymatic assay. The Km of the Mpro substrate for the protease was 13.5 μM.
# (§2) The compounds were added to an assay plate. For 100% inhibition control (HPE, hundred percent effect), 1 μM GC376 was added. For no inhibition control (ZPE, zero percent effect), no compound was added.
# (§3) IC50 values of compounds were calculated with the GraphPad Prism software using the nonlinear regression model of log(inhibitor) vs. response—Variable slope (four parameters). The inhibition activity was calculated using the formula below, IC50 values is calculated using the Inhibition % data.
# (§4) [formula] • #HEP: Hundred percent effect controls. Containing substrate+enzyme+1 μM GC376. • ZPE: Zero percent effective controls. Containing enzyme+substrate, no compound. • Sample: Compound activity testing wells. Containing compound+enzyme+substrate. • BG: Compound background control wells. Containing compound+substrate, no enzyme.
# OC43 Mpro = OC43 Mpro (Human coronavirus OC43, UniProt P0C6X6); assay: OC43 Mpro enzymatic assay; format: biochemical, HCoV OC43
# Method: as §1, §2, §3, §4
# SARS-COV2 Mpro = SARS-COV2 Mpro (Severe acute respiratory syndrome coronavirus 2, UniProt P0DTD1); assay: COVID-19 (nCoV-2019, SARS-CoV2) Mpro enzymatic assay; format: biochemical; conditions: read-out: COVID-19 Mpro IC50
# Method: as §1, with “assay.” for “assay. The Km of the Mpro substrate for the protease was 13.5 μM.”
# The compounds were added to an assay plate. For 100% inhibition control (HPE, hundred percent effect), 1 μM GC376 was added.
# as §3
# [formula] • #HEP: Hundred percent effect controls. […] Containing enzyme+substrate, no compound. • Sample: Compound activity testing wells. Containing compound+enzyme+substrate. • BG: Compound background control wells. Containing compound+substrate, no enzyme.
# Sequence of 229E Mpro (P0C6X1 2966-3267): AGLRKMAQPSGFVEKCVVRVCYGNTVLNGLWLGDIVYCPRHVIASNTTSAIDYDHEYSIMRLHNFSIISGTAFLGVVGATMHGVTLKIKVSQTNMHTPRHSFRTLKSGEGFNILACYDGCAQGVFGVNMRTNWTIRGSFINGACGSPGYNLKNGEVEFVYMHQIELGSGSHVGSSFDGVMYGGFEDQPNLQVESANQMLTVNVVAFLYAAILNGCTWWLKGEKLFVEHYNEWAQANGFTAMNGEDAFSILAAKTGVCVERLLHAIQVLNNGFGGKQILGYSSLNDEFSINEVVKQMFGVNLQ
# Sequence of OC43 Mpro (P0C6X6 3247-3549): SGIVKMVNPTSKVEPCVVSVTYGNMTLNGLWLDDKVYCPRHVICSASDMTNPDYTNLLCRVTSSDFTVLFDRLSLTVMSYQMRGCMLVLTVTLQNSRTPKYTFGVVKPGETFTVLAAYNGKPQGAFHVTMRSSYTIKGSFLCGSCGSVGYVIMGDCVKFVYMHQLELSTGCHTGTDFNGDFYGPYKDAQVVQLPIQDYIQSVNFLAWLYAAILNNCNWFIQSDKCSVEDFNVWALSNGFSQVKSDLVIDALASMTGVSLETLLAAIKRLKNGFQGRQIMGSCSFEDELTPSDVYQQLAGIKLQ
Structure (SMILES),IC50 (229E Mpro; Table 3) [nM],IC50 (OC43 Mpro; Table 3) [nM],IC50 (SARS-COV2 Mpro; Table 3) [nM],IC50 (229E Mpro; Table 5) [nM],IC50 (OC43 Mpro; Table 5) [nM],IC50 (SARS-COV2 Mpro; Table 5) [nM]
"CC(C)(C)[C@H](NC(=O)OC1CC(F)(F)C1(F)F)C(=O)N1C[C@H]2[C@@H]([C@H]1C(=O)N[C@H](C#N)C[C@@H]1CC3(CC3)NC1=O)C2(C)C (single isomer, unassigned) [273 Isomer 1]",< 2000,< 2000,< 2000,–,–,–
"CC(C)(C)[C@H](NC(=O)OC1CC(F)(F)C1(F)F)C(=O)N1C[C@H]2[C@@H]([C@H]1C(=O)N[C@H](C#N)C[C@@H]1CC3(CC3)NC1=O)C2(C)C (single isomer, unassigned) [273 Isomer 2]",< 2000,< 2000,< 2000,–,–,–
"CC(C)(C)[C@H](NC(=O)C1(CF)CC1(F)F)C(=O)N1C[C@H]2[C@@H]([C@H]1C(=O)N[C@H](C#N)C[C@@H]1CC3(CC3)NC1=O)C2(C)C (single isomer, unassigned) [292 Isomer 1]",< 2000,< 2000,< 2000,–,–,–
"CC(C)(C)[C@H](NC(=O)C1(CF)CC1(F)F)C(=O)N1C[C@H]2[C@@H]([C@H]1C(=O)N[C@H](C#N)C[C@@H]1CC3(CC3)NC1=O)C2(C)C (single isomer, unassigned) [292 Isomer 2]",< 2000,< 2000,< 2000,–,–,–
"CC1(C)[C@@H]2[C@@H](C(=O)N[C@H](C#N)C[C@@H]3CC4(CC4)NC3=O)N(C(=O)C(NC(=O)C(F)(F)F)C3CCC3)C[C@@H]21 (single isomer, unassigned) [372 Isomer 1]",< 2000,< 2000,< 2000,–,–,–
"CC1(C)[C@@H]2[C@@H](C(=O)N[C@H](C#N)C[C@@H]3CC4(CC4)NC3=O)N(C(=O)C(NC(=O)C(F)(F)F)C3CCC3)C[C@@H]21 (single isomer, unassigned) [372 Isomer 2]",< 2000,< 2000,< 2000,–,–,–
"COC(C)(C)[C@H](NC(=O)C(F)(F)F)C(=O)N1C[C@H]2[C@@H]([C@H]1C(=O)N[C@H](C#N)C[C@@H]1CC3(CC3)NC1=O)C2(C)C (single isomer, unassigned) [Compound 284]",–,–,–,10000 to 30000,< 2000,< 2000
"C[C@@H](OC1CC1)[C@H](NC(=O)C(F)(F)F)C(=O)N1C[C@H]2[C@@H]([C@H]1C(=O)N[C@H](C#N)C[C@@H]1CC(C)(C)NC1=O)C2(C)C (single isomer, unassigned) [Compound 298]",–,–,–,< 2000,< 2000,< 2000
"C[C@@H](OC1CC1)[C@@H](NC(=O)C(F)(F)F)C(=O)N1C[C@H]2[C@@H]([C@H]1C(=O)N[C@H](C#N)C[C@@H]1CC(C)(C)NC1=O)C2(C)C (single isomer, unassigned) [Compound 298a]",–,–,–,< 2000,< 2000,< 2000
"C[C@@H](OC1(C)CC1)[C@H](NC(=O)C(F)(F)F)C(=O)N1C[C@H]2[C@@H]([C@H]1C(=O)N[C@H](C#N)C[C@@H]1CC(C)(C)NC1=O)C2(C)C (single isomer, unassigned) [Compound 299]",< 2000,< 2000,< 2000,< 2000,< 2000,–
"C[C@@H](OC1(C)CC1)[C@H](NC(=O)C(F)(F)F)C(=O)N1C[C@H]2[C@@H](C1C(=O)N[C@H](C#N)C[C@@H]1CC(C)(C)NC1=O)C2(C)C (single isomer, unassigned) [Compound 299a]",–,–,–,< 2000,< 2000,< 2000
"CN(C(=O)[C@@H](NC(=O)c1cnccn1)C(C)(C)C)[C@@H](CC1CC1)C(=O)N[C@H](C#N)C[C@@H]1CCCNC1=O [Compound 102, N-[(1S)-1-[[(1S)-2-[[(1S)-1-cyano-2-[(3S)-2-oxo-3-piperidyl]ethyl]amino]-1-(cyclopropylmethyl)-2-oxo-ethyl]-methyl-carbamoyl]-2,2-dimethyl-propyl]pyrazine-2-carboxamide]",2000 to 10000,10000 to 30000,> 30000,–,–,–
N#C[C@H](C[C@@H]1CCNC1=O)NC(=O)[C@H](CC1CC1)NC(=O)[C@H](Cc1ccc(F)cc1)NC(=O)c1cnccn1 [Compound 125],< 2000,< 2000,2000 to 10000,–,–,–
"C[C@@H](OC(C)(C)C)[C@H](NC(=O)C(F)(F)F)C(=O)N1C[C@H]2[C@@H]([C@H]1C(=O)N[C@H](C#N)C[C@@H]1CC3(CC3)NC1=O)C2(C)C [Compound 137, (1R,2S,5S)-3-[(2S,3R)-3-tert-butoxy-2-[(2,2,2-trifluoroacetyl)amino]butanoyl]-N-[(1S)-1-cyano-2-[(6R)-5-oxo-4-azaspiro[2.4]heptan-6-yl]ethyl]-6,6-dimethyl-3-azabicyclo[3.1.0]hexane-2-carboxamide]",–,–,–,< 2000,< 2000,< 2000
"C[C@H](OC(C)(C)C)[C@H](NC(=O)C(F)(F)F)C(=O)N1C[C@H]2[C@@H]([C@H]1C(=O)N[C@H](C#N)C[C@@H]1CC3(CC3)NC1=O)C2(C)C [Compound 138, (1R,2S,5S)-3-[(2S,3S)-3-tert-butoxy-2-[(2,2,2-trifluoroacetyl)amino]butanoyl]-N-[(1S)-1-cyano-2-[(6R)-5-oxo-4-azaspiro[2.4]heptan-6-yl]ethyl]-6,6-dimethyl-3-azabicyclo[3.1.0]hexane-2-carboxamide]",–,–,–,< 2000,< 2000,< 2000
"COC(C)(C)[C@H](NC(=O)C(F)(F)F)C(=O)N1C[C@H]2[C@@H]([C@H]1C(=O)N[C@H](C#N)C[C@@H]1CC3(CC3)NC1=O)C2(C)C [Compound 139, (1R,2S,5S)—N—((S)-1-cyan-2-((R)-5-oxo-4-azaspiro[2.4]heptan-6-yl)ethyl)-3-((S)-3-methoxy-3-methyl-2-(2,2,2-trifluoroacetamido)butanoyl)-6,6-dimethyl-3-azabicyclo[3.1.0]hexane-2-carboxamide]",–,–,–,< 2000,< 2000,< 2000
"CC(C)(C)[C@H](N)C(=O)N1C[C@H]2[C@@H]([C@H]1C(=O)N[C@H](C#N)C[C@@H]1CC3(CC3)NC1=O)C2(C)C [Compound 235, (1R,2S,5S)-3-((S)-2-amino-3,3-dimethylbutanoyl)-N—((S)-1-cyano-2-((R)-5-oxo-4-azaspiro[2.4]heptan-6-yl)ethyl)-6,6-dimethyl-3-azabicyclo[3.1.0]hexane-2-carboxamide]",< 2000,< 2000,< 2000,–,–,–
"C[C@@H](OC(C)(C)C)[C@H](NC(=O)C(F)(F)F)C(=O)N1C[C@H]2[C@@H]([C@H]1C(=O)N[C@H](C#N)C[C@@H]1CC(C)(C)NC1=O)C2(C)C [Compound 285, (1RSS)-3-[(2S,3R)-3-tert-butoxy-2-[(2,2,2-trifluoroacetyl)amino]butanoyl]-N-[(1S)-1-cyano-2-[(3R)-5,5-dimethyl-2-oxo-pyrrolidin-3-yl]ethyl]-6,6-dimethyl-3-azabicyclo[3.1.0]hexane-2-carboxamide]",< 2000,< 2000,< 2000,–,–,–
"CO[C@H](C)[C@H](NC(=O)C(F)(F)F)C(=O)N1C[C@H]2[C@@H]([C@H]1C(=O)N[C@H](C#N)C[C@@H]1CC(C)(C)NC1=O)C2(C)C [Compound 290, (1R,2S,5S)-N—((S)-1-cyano-2-((R)-5,5-dimethyl-2-oxopyrrolidin-3-yl)ethyl)-3-((2S,3R)-3-methoxy-2-(2,2,2-trifluoroacetamido)butanoyl)-6,6-dimethyl-3-azabicyclo[3.1.0]hexane-2-carboxamide]",–,–,–,< 2000,< 2000,< 2000
"C[C@@H](OC(C)(C)C)[C@H](NC(=O)C1(C(F)(F)F)CC1)C(=O)N1C[C@H]2[C@@H]([C@H]1C(=O)N[C@H](C#N)C[C@@H]1CC(C)(C)NC1=O)C2(C)C [Compound 295, (1R,2S,5S)-3-[(2S,3R)-3-tert-butoxy-2-[[1-(trifluoromethyl)cyclopropanecarbonyl]amino]butanoyl]-N-[(1S)-1-cyano-2-[(3R)-5,5-dimethyl-2-oxo-pyrrolidin-3-yl]ethyl]-6,6-dimethyl-3-azabicyclo[3.1.0]hexane-2-carboxamide]",–,–,–,< 2000,< 2000,< 2000
"C[C@@H](OC1CCC1)[C@H](NC(=O)C(F)(F)F)C(=O)N1C[C@H]2[C@@H]([C@H]1C(=O)N[C@H](C#N)C[C@@H]1CC(C)(C)NC1=O)C2(C)C [Compound 307, (1R,2S,5S)—N-[(1S)-1-cyano-2-[(3R)-5,5-dimethyl-2-oxo-pyrrolidin-3-yl]ethyl]-3-[(2S,3R)-3-(cyclobutoxy)-2-[(2,2,2-trifluoroacetyl)amino]butanoyl]-6,6-dimethyl-3-azabicyclo[3.1.0]hexane-2-carboxamide]",< 2000,< 2000,< 2000,–,–,–
